From PMC8617627, “Novel DYRK1A Inhibitor Rescues Learning and Memory Deficits in a Mouse Model of Down Syndrome” (Pharmaceuticals, 2021)
Where two headings read alike, the source gives them in different places.

What was measured:
Assay in all cases: Kinase profile (33P ATP filter binding)
Format in all cases: biochemical
Src = Src (Homo sapiens, UniProt P12931); conditions: read-out: Remaining protein kinase activity
PAK2 = PAK2 (Homo sapiens, UniProt Q13177); conditions: read-out: Remaining protein kinase activity
MKK1 = MKK1 (Homo sapiens, UniProt Q02750); conditions: read-out: Remaining protein kinase activity
SIK3 = SIK3 (Homo sapiens, UniProt Q9Y2K2)
IKKb = molecular target: T1, IKKb (Homo sapiens, UniProt O14920); conditions: read-out: Remaining protein kinase activity
T1 sequence (O14920 1-756): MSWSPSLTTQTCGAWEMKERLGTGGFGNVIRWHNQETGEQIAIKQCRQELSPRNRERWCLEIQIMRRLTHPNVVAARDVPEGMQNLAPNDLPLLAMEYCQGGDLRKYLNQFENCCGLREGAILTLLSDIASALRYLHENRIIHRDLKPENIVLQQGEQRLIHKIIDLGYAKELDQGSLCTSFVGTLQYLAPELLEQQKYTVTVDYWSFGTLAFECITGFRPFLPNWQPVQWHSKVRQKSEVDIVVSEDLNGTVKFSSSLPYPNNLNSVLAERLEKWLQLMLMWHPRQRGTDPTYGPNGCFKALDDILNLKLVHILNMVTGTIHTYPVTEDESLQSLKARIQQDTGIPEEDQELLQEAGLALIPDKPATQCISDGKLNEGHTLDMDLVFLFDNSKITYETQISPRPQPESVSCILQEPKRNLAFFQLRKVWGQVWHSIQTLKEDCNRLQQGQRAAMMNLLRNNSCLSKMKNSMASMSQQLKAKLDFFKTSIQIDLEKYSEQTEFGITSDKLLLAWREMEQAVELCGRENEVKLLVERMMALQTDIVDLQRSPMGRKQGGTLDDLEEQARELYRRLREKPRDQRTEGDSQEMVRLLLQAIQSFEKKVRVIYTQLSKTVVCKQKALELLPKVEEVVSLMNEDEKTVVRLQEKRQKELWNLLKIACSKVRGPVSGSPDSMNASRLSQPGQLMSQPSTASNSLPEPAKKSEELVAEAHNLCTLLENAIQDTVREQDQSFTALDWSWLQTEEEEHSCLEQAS

ERK8 = molecular target: T2, ERK8 (Homo sapiens, UniProt Q8TD08); conditions: read-out: Remaining protein kinase activity
T2 sequence (Q8TD08 1-544): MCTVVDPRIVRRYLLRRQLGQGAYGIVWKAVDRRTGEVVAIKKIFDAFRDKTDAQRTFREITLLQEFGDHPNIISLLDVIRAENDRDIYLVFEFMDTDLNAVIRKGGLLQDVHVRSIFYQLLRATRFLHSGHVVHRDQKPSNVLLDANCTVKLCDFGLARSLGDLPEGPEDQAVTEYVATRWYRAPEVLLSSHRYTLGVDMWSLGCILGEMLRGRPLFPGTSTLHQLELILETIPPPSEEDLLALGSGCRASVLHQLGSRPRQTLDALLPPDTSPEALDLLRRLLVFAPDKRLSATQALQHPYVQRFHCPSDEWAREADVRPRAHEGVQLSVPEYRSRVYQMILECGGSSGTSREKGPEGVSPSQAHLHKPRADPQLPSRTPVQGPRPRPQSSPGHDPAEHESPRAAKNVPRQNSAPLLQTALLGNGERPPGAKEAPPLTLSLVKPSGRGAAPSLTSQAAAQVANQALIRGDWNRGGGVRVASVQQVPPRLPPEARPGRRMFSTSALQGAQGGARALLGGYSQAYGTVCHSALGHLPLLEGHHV

JNK3 = JNK3 (Homo sapiens, UniProt P53779)
Sequence of JNK3 (P53779 whole entry, species assumed): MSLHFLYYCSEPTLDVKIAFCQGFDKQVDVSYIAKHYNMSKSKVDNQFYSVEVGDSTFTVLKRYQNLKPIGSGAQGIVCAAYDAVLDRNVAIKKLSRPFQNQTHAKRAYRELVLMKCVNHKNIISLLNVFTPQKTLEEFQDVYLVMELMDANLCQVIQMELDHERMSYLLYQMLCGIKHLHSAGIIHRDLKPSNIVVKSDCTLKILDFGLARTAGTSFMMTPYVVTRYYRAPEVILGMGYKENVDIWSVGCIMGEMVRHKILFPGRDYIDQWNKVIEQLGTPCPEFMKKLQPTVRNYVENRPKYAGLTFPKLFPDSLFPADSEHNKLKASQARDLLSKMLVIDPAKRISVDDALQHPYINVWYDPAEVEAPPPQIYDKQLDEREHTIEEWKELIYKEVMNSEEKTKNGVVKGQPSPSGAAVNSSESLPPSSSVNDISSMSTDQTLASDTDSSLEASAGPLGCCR

Sequence of Src (P12931 whole entry): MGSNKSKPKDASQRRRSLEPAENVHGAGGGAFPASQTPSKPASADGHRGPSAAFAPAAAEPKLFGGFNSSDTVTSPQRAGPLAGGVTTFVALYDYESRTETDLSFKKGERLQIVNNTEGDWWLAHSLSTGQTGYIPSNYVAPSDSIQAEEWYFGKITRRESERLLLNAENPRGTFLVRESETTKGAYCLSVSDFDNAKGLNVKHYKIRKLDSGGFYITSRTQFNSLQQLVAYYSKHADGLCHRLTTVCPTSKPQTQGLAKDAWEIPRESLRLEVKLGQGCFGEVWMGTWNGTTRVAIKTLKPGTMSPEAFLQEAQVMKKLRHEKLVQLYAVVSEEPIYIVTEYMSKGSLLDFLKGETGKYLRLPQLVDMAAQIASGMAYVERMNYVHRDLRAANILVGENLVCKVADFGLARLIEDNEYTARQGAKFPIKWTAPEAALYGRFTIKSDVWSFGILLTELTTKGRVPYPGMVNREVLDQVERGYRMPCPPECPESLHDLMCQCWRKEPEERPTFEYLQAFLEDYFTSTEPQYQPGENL
Sequence of SIK3 (Q9Y2K2 whole entry): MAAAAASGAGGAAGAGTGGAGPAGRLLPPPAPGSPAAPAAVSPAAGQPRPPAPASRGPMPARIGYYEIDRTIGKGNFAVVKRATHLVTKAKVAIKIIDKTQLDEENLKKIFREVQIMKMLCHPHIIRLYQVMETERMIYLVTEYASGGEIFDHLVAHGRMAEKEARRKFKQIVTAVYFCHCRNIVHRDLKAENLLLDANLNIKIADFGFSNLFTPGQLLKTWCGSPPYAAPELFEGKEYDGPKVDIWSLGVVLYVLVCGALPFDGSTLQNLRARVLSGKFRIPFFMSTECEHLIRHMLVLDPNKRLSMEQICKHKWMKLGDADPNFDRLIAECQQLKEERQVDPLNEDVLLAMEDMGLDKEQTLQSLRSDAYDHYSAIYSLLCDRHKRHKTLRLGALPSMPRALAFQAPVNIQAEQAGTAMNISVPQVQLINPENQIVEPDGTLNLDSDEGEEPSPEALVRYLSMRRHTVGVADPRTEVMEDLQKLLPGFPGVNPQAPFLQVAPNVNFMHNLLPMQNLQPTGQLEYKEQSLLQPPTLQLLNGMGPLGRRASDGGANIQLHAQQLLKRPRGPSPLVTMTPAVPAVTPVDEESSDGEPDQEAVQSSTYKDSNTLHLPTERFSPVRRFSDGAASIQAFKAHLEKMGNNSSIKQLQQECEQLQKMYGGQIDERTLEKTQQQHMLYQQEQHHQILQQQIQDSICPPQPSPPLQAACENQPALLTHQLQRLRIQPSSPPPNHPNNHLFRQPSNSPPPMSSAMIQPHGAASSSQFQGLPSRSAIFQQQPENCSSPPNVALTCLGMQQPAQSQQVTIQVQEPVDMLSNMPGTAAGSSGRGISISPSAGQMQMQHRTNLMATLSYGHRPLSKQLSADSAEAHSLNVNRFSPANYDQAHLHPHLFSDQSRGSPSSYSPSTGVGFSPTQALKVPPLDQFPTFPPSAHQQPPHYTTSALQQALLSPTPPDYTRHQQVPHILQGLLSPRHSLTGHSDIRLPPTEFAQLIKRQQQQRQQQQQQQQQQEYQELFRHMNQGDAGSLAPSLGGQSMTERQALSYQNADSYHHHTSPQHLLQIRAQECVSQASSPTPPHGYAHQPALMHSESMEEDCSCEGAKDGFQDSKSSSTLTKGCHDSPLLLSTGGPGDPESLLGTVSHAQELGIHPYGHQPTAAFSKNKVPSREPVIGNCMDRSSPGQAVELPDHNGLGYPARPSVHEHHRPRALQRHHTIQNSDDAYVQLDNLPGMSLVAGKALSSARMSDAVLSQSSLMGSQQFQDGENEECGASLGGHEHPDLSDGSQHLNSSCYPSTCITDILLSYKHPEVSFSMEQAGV
Sequence of MKK1 (Q02750 whole entry, species assumed): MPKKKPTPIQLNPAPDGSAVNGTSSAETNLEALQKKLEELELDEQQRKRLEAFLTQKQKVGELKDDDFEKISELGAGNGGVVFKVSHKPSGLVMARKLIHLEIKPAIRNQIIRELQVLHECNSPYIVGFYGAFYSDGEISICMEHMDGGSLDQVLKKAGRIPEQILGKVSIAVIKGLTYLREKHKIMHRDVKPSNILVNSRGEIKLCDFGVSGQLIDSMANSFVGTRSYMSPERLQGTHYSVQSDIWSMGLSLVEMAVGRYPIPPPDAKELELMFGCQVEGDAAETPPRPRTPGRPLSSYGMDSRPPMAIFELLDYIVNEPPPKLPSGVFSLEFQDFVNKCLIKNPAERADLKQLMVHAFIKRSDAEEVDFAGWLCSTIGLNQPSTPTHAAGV
Sequence of PAK2 (Q13177 whole entry): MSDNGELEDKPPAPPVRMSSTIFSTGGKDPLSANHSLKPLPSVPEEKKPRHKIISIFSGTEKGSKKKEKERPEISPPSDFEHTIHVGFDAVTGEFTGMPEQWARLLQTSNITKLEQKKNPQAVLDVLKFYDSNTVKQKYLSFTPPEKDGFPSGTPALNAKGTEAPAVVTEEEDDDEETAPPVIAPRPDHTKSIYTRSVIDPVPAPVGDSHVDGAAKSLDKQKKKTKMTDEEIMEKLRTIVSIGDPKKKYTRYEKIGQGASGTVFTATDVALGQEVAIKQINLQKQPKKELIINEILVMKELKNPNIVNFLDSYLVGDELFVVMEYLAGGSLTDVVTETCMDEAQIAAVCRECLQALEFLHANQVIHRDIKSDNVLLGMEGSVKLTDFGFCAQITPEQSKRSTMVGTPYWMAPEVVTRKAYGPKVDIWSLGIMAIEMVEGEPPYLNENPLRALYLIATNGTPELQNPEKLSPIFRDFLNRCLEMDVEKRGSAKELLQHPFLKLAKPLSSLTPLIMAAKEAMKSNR

## COc1ccc2sc(-c3cncc(NC(C)=O)c3)nc2c1 [PST-001, N-(5-(5-Methoxybenzo[d]thiazol-2-yl)pyridin-3-yl)acetamide]
Src
  remaining activity at 1 µM: 100%
  remaining activity at 100 µM: 106%
PAK2
  remaining activity at 1 µM: 114%
  remaining activity at 100 µM: 122%
MKK1
  remaining activity at 1 µM: 117%
  remaining activity at 100 µM: 135%
SIK3; 1 μM
  Remaining protein kinase activity: 114%
SIK3; 100 μM
  Remaining protein kinase activity: 78%
IKKb
  remaining activity at 1 µM: 111%
  remaining activity at 100 µM: 108%
ERK8
  remaining activity at 1 µM: 89%
  remaining activity at 100 µM: 28%
JNK3; 1 μM
  Remaining protein kinase activity: 127%
JNK3; 100 μM
  Remaining protein kinase activity: 122%

## COc1ccc2sc(-c3cncc(N)c3)nc2c1 [compound 1, 5-(5-Methoxybenzo[d]thiazol-2-yl)pyridin-3-amine]
Src; Src, 1 μM
  remaining activity at 1 µM: 123%
Src; Src, 100 μM
  remaining activity at 100 µM: 42%
PAK2; PAK2, 1 μM
  remaining activity at 1 µM: 110%
PAK2; PAK2, 100 μM
  remaining activity at 100 µM: 103%
MKK1; MKK1, 1 μM
  remaining activity at 1 µM: 101%
MKK1; MKK1, 100 μM
  remaining activity at 100 µM: 84%
SIK3; 1 μM
  Remaining protein kinase activity: 106%
SIK3; 100 μM
  Remaining protein kinase activity: 19%
IKKb; IKKb, 1 μM
  remaining activity at 1 µM: 105%
IKKb; IKKb, 100 μM
  remaining activity at 100 µM: 38%
ERK8; ERK8, 1 μM
  remaining activity at 1 µM: 86%
ERK8; ERK8, 100 μM
  remaining activity at 100 µM: 4%
JNK3; 1 μM
  Remaining protein kinase activity: 125%
JNK3; 100 μM
  Remaining protein kinase activity: 61%
